Consider seven compounds from paper PMC3338484.

The term Km denotes the concentration of substrate that gives half-maximal velocity. Usually Hill coefficient stands for a measure of the steepness of the concentration-response curve. A word on the ΔTm: it is the change in melting temperature against a reference sample.

The target of assay [1] is T1, PaFolD (Pseudomonas aeruginosa, UniProt Q9I2U6).
T1 construct: hexa-histidine tag with TEV protease site (N, cleaved yes); made in house; host or cells: E. coli BL21 (DE3)
The assay is described as follows: FolD enzyme assay (absorbance at 350 nm), IC50 determination. The format is biochemical. The note with it: for Hill coefficient: from PaFolD IC50 curves. As to the method: Enzyme activity was assayed by measuring the absorbance at 350 nm of the intermediate product in the reaction, N ^5,N ^10-methenyl-THF, following acidification of the reaction and consequent reconversion of the final product formyl-THF to the intermediate. Following optimization of the assay buffer and determination of the enzyme linearity, assays were carried out at room temperature in a 50 µL reaction volume containing 25 mM bicine, pH 7.9, 1 mM dithiothreitol, 0.05% CHAPS, 0.2 mg mL^−1 BSA, 1 nM recombinant FolD, […] NADP^+ and 35 µM N ^5,N ^10-methylene-THF. Michaelis constants for the two substrates (NADP^+ and N ^5,N ^10-methylene-THF) were determined in an end-point assay, using these buffer and enzyme conditions.
The HTS was performed with a compound collection of 79,029 diverse structures based around 4000 chemical scaffolds. All compounds were dissolved in 100% DMSO to a concentration of 3 mM. Single point inhibition assays were carried out at room temperature in clear, flat bottom, polystyrene, 384-well plates (Matrix). Each assay was performed in a 50 µL reaction volume as described above. A standard compound (0.5 µL in DMSO) was transferred to all assay plates using a Cartesian Hummingbird (Genomics Solutions) before 25 µL of a reaction mix, containing all assay components except NADP^+ and N ^5,N ^10-methylene-THF, was added to assay plates using a Thermo Scientific Well-Mate (Matrix). The reaction was initiated and stopped with the additions of 25 µL of substrate and 50 µL of 1 M HCl, respectively, again using a Well-Mate. The FolD assay was run at room temperature for 20 min and the signal was allowed to develop for 10 min before the absorbance of each well was read at 350 nm using an EnVision multilabel plate reader (PerkinElmer Life Sciences). ActivityBase (ID Business Solutions) was used for data processing and analysis.
Compounds of interest were cherry picked from the original library plates using a series of 10-point inhibitor curves (consisting of half-log serial dilutions of compound in DMSO) and prepared in 384-well plates using a JANUS workstation (PerkinElmer Life Sciences). Each compound plate produced 10-point inhibitor curves for 30 test compounds and two curves for LY374571, the standard compound in this screen (see following paragraph for inhibitor details). Following preparation of the inhibitor curves, assays were carried out as described above. ActivityBase was again used for data processing and analysis. All IC50 curve fitting was undertaken within ActivityBase XE utilizing the underlying ‘MATH IQ’ engine of XLfit version 5.1.0.0. A four-parameter logistic dose-response curve was utilized for compound potency determination.
Enzyme activity was assayed in an optimised buffer at 1 nM PaFolD. […] When saturating concentrations of either substrate or co-factor were required N ^5,N ^10-methylene-THF was used at 250 µM and NADP^+ at 1 mM. For screening the compound library N ^5,N ^10-methylene-THF was fixed at a concentration of 35 µM and NADP^+ was saturating at 1 mM and the assay was stopped after 20 minutes (within the linear range of the assay).

Assay [2] relates to P. aeruginosa PAO1 ATCC 15692. Kind of assay: Disc diffusion sensitivity testing. The format is cell-based, Pseudomonas aeruginosa. The note with it: for clearance in disc diffusion sensitivity assay: six dilutions, approximately 115 µg to 4.5 ng per disc, zones measured after 16 and 48 hours, data not shown. As to the method: Compounds identified by HTS were used in a disc diffusion sensitivity test against P. aeruginosa. Briefly a single colony of P. aeruginosa PAO1 ATCC 15692 was used to inoculate a 2 mL volume of LB media prior to overnight growth at 37°C. The bacteria were then diluted 1∶100 fold prior to 100 µL volumes plated onto Iso-Sensitest agar plates and dried in air for 5 minutes. Eight 3 mm discs were impregnated with 5 µl of compound, dissolved in DMSO, prior to loading onto each plate. Two controls were used per plate, one a 100% DMSO stock, the other a 10 µg stock of gentamycin. Six compound dilutions were tested per plate, ranging from approximately 115 µg to 4.5 ng. Three compounds with known antifolate activity were tested, namely methotrexate, LY354899 and LY374571 in addition to the three singletons, DDD32388, DDD55519 and DDD61461, and two of the biaryl sulphonamide series that had been identified. Plates were incubated at 37°C, and zones of inhibition measured after 16 and 48 hours.
(In general: In agar diffusion tests the substance spreads into inoculated agar from a disc or well.)

For assay [3], the target named is T1, PaFolD. Kind of assay: Surface plasmon resonance (SPR) binding to biotinylated PaFolD. The note with it: for binding to PaFolD by SPR: running buffer with 1 mM NADP+, 1% DMSO, data not shown; for rate of association (SPR): association measured for 1 min, LY374571 could not compete off this binding. As to the method:
For analysis of compounds using SPR it was necessary to produce an expression system that provided a protein carrying a biotinylation acceptor peptide (BAP-tag). This BAP-tag peptide has the sequence 5′ - […] - 3′ and is specifically biotinylated by the E. coli biotin holoenzyme synthetase, BirA. The modified PaFolD was then purified as before. Subsequently 30 µM of BAP-tagged PaFolD was incubated at 37°C overnight in buffer C (10 mM Tris-HCl pH 7.5, 200 mM KCl, 5 mM MgCl2, 100 µM d-biotin) containing 500 µM ATP and 1 µM BirA. The sample was passed through a HisTrap HP column equilibrated with buffer A to remove BirA. The flow through was collected and concentrated (Amicon 10 kDa MWCO spin column) to remove free biotin. The incorporation of biotin was monitored by MALDI-TOF analysis performed at the University of Dundee ‘Fingerprints’ Proteomics Facility using an Applied Biosystems Voyager DE-STR spectrometer. The biotinylated protein was flash frozen at 10 mg mL^−1 in 50 mM Tris-HCl, 250 mM NaCl, 15% glycerol, pH 7.5 and stored at −80°C until required.
A Biacore T100 instrument (GE Healthcare) was used for all SPR experiments. Biotinylated PaFolD was diluted 50-fold into a running buffer containing 50 mM Tris-HCl, pH 7.5, 150 mM NaCl, 5 mM MgCl2, 1 mM DTT, 0.05% Tween 20, 1 mM NADP^+ and 1% DMSO and injected over a streptavidin chip (GE Healthcare) at a flow rate of 10 µL min^−1 for 10 min to obtain a density of ∼4,000 response units. Compounds DDD55519 and DDD61461 were injected in duplicates at three-fold concentration series 136 nM–11 µM at a flow rate 30 µL min^−1. Association was measured for 1 min and dissociation for 20 min. Compounds DDD32388 and DDD58331 were injected at three-fold concentration series of between 1.23 µM–100 µM at a flow rate 30 µL min^−1. Association was measured for 1 min and dissociation 2 min. Data were referenced from a blank streptavidin surface and blank injections of buffer. Processing was carried out using Scrubber 2 software (BioLogic Software, Australia).
(In general: In SPR one partner is held on a chip, and binding of the other changes the refractive index at the surface.)

In assay [4] the target is T1, PaFolD. Kind of assay: Differential scanning fluorimetry (DSF) thermal shift screen. It counts as binding. The note with it: standards at 250 µM; 4 µM PaFolD, 4 mM NADP+. An excerpt: It was reasoned that such conditions would favour crystallization. In addition two compound libraries, the Maybridge fragment set and the Prestwick collection of biologically active molecules, were screened after first assessing the suitability of the method for PaFolD, the optimum buffer and cofactor conditions and the lowest concentration of protein that generated a strong signal as previously described for our laboratory. An Mx3005p RT PCR system (Stratagene) was used to monitor protein unfolding by the increase in fluorescence of SYPRO Orange dye (Invitrogen). Briefly, the enzyme was tested against 1000 compounds from the Maybridge Rule of Three (Ro3) fragment library and 1120 compounds from the Prestwick Chemical Library. Assays were carried out in 40 µL volumes with PaFolD at 4 µM, supplemented with 4 mM NADP^+ in 50 mM Tris-HCl, 250 mM NaCl, pH 7.5 in 96 well RT PCR plates (Abgene). […] After each 1°C increase the sample was excited at 492 nm and fluorescence emissions recorded at 610 nm. […]
In advance of performing a large-scale HTS, PaFolD was assayed combining DSF with the Prestwick Chemical Library of drug-like molecules (1,200 compounds) and a bespoke Maybridge RO3 fragment library of 1,000 compounds. […] A number of compounds in the Prestwick library gave apparent thermal shifts of approximately +10°C, however all of these were rejected due to their intrinsic fluorescence. […]
(In general: DSF heats the sample and reads unfolding from a dye or from intrinsic fluorescence.)

Assay [5] deals with HsFolD. As to conditions: slightly different assay conditions; read-out: IC50 against HsFolD; cited from earlier work.
[6] abbreviates: IC50 (μM), confirmed HTS hits, ten-point dose response, 30 µM to 1 nM.

Values joined by “and” are separate entries in the source; they are usually repeats but may differ in a detail not shown here. Equal values may be shown once.

T1 sequence (Q9I2U6 whole entry): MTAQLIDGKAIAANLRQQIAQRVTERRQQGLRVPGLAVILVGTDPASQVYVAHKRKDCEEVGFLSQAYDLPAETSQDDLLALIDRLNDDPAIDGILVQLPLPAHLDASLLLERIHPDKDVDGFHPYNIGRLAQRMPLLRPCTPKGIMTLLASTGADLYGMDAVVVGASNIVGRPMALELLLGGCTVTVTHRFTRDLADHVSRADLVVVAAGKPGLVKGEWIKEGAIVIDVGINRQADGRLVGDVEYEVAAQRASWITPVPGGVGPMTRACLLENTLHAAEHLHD

Turning to `NC(=O)c1ccc[n+]([C@@H]2O[C@H](COP(=O)([O-])OP(=O)(O)OC[C@H]3O[C@@H](n4cnc5c(N)ncnc54)[C@H](OP(=O)(O)O)[C@@H]3O)[C@@H](O)[C@H]2O)c1` [NADP^+], the Km in assay [1] (1 nM PaFolD, end-point assay, other substrate saturating, mean ± SD (n = 4), read-out: Michaelis constant (Km)) is 179 ± 11 µM.
In the case of gentamycin, the “radius cleared (zone of inhibition)” value in assay [2] (10 µg stock control disc, P. aeruginosa PAO1) is given as 13 mm.
Turning to `CCOc1nc(N)nc(N)c1S(=O)(=O)c1ccc(Cl)cc1` [DDD32388], in assay [3], the “binding to PaFolD by SPR” value is on record as “weak”. The IC50 in assay [1] (setting [6]) came to 0.9 µM. The Hill coefficient in assay [1] is given as 1.6.
On to `Oc1cc(C(F)(F)F)nc(SCc2c(F)cccc2Cl)n1` [DDD61461], for which, in assay [3], the “rate of association (SPR)” value is on record as “slow rates of association” and the “binding to PaFolD by SPR” value is on record as “confirmed”. This compound also came in with an IC50 in assay [1] (setting [6]) of 2.5 µM. The same compound returned a Hill coefficient in assay [1] of 2.6.
`Nc1nc(O)c(N)c(NC(=O)Nc2ccc(C(=O)N[C@H](CCC(=O)O)C(=O)O)cc2)n1` [LY374571, (2R)-2-[(4-{[(2,5-diamino-6-hydroxypyrimidin-4-yl)carbamoyl]amino}phenyl)formamido] pentanedioic acid]: the ΔTm at 250 µM in assay [4] came to 15 °C. Besides, the IC50 is 3 nM in assay [5]; ~0.03 µM and 0.027 µM in assay [1] (IC50 against PaFolD, 1 nM PaFolD, 35 µM N5,N10-methylene-THF, 1 mM NADP+, 20 min). Besides, the “clearance in disc diffusion sensitivity assay” value in assay [2] is given as “failed to give any clearance”.
Consider `Cc1[nH]c2c(C#N)cnn2c(=O)c1Cc1ccccc1` [DDD55519], for which, in assay [3], the “rate of association (SPR)” value is recorded as “slow rates of association” and the “binding to PaFolD by SPR” value is reported as “confirmed”. In assay [1] (setting [6]), this compound gave an IC50 of 3.8 µM. In assay [1], this compound displayed a Hill coefficient of 1.2.
In the case of `Nc1nc2c(c(=O)[nH]1)N1C(=O)N(c3ccc(C(=O)N[C@@H](CCC(=O)O)C(=O)O)cc3)CC1CN2` (stereo partly shown) [LY354899, 5,6,7,8-tetrahydro-N ^5,N ^10-carbonylfolic acid], the thermal shift entry in assay [4] was “+9 °C”. The “clearance in disc diffusion sensitivity assay” value in assay [2] is on record as “failed to give any clearance”.
